Experiments:
[1] = Pharmacokinetics of compounds 1–11 in rat plasma (UPLC-TQ/MS) after oral administration of HYD and plus-minus Haizao/Gancao decoctions; format: in vivo, Wistar rats (PTU-induced model of hypothyroidism); conditions: Wistar, model rats, n = 6, mean ± S.D.
Procedure: Plasma samples (200 μL) and IS solution (50 μL, 1215 ng/mL for diphenhydramine, 476 ng/mL for chloromycetin) were added to an Eppendorf tube, and this mixture was extracted with methanol (550 μL) by shaking on a vortex-mixer for 2 min, and centrifuged for 10 min at 13,000 rpm. The contents were evaporated to dryness in a rotary evaporator at 37 °C. The residue was reconstituted in methanol (100 μL) and centrifuged (13,000 rpm for 10 min). The supernatant was transferred to an autosample vial and an aliquot of 5 μL was injected onto the UPLC-MS/MS system for analysis.
The developed and validated method was used to evaluate the pharmacokinetics of the eleven compounds after oral administration of different fractions in […] (Figure 3). […] The pharmacokinetic parameters including half-life (T1/2), maximum plasma concentration (Cmax), time to reach the maximum concentration (Tmax), and area under concentration–time curve (AUC0~t) were calculated by a non-compartment model and are shown in Table 6.
A considerable increase in thyroid stimulating hormone (TSH) and decrease in triiodothyronine (T3) and tetraiodothyronine (T4) in serum are considered to be markers of successful hypothyroid rat model preparation. PTU is the classic drug used to replicate hypothyroidism in rat models. It is generally thought that PTU can decrease the level of thyroid hormone in a hypothyroid rat model by inhibiting the activity of TPO [31, 32]. Model Wistar rats were administered PTU intragastrically at a dose of 10 mg/kg (QD) for 2 weeks to establish hypothyroidism. Serum from model rats was collected on the last day of PTU administration and the T3, T4 and TSH levels were determined using test kits. Wistar rats with a considerable increase in […] and a decrease in serum T3 and T4 were considered to have hypothyroidism and were selected for subsequent pharmacokinetic studies.
For the pharmacokinetic studies, model Wistar rats were divided into six groups (n = 6 per group). Rats in the model HYD groups were administered HYD at a dose of 12 mL/kg intragastrically. In the model HYD-GC groups, HYD-GC (11 mL/kg) was administered. In the model HYD-HZ groups, HYD-HZ (11 mL/kg) was administered. In the model HYD-GC-HZ groups, HYD-GC-HZ (10 mL/kg) was administered. In the model GH groups, GH (2 mL/kg) was administered. In the model GC groups, GC (1 mL/kg) was administered. Blood samples were collected at specific time points before (0 min) and after oral administration (5, 10, 20, 40, 60, 120, 240, 480, 720, 1440 min). A total of 360 blood samples were collected. All blood samples were immediately centrifuged at 2500 rpm for 10 min to obtain plasma, which was labeled and frozen at −80 °C until analysis. Blank plasma was obtained from the rats without oral administration and was used to investigate the assay development and validation.
To determine the pharmacokinetic parameters of compounds 1–11 in different groups, concentration–time data were analyzed by DAS 3.2 software (Mathematical Pharmacology Professional Committee of China, Shanghai, China, 2011). Data were expressed as the mean and standard deviation (S.D.) with triplicate measurements. The identification of significant differences between different groups was carried out using the Student’s t-test. A p value < 0.05 was considered statistically significant.

CYP2C19 = system: CYP2C19; set-up: method as in PMID 21462897; conditions: cited from earlier work
CYP2C9 = system: CYP2C9; set-up: method as in PMID 21462897; conditions: cited from earlier work
CYP3A4 = system: CYP3A4; set-up: method as in PMID 21462897; conditions: cited from earlier work
[2] = 1 mL/kg, group GC (extract of Gancao), 1 mL/kg intragastrically
[3] = 2 mL/kg, group GH (extract of Gancao and Haizao), 2 mL/kg intragastrically
[4] = 11 mL/kg, group HYD-HZ (HYD minus Haizao), 11 mL/kg intragastrically
[5] = 12 mL/kg, group HYD, 12 mL/kg intragastrically
[6] = 10 mL/kg, group HYD-GH (HYD minus Gancao and Haizao; HYD-GC-HZ), 10 mL/kg intragastrically
[7] = 11 mL/kg, group HYD-GC (HYD minus Gancao), 11 mL/kg intragastrically

| SMILES | AUC(0-t) [1, 2] | Cmax [1, 2] | Tmax [1, 2] | half-life [1, 2] | AUC(0-t) [1, 3] | Cmax [1, 3] | Tmax [1, 3] | half-life [1, 3] | AUC(0-t) [1, 4] | Cmax [1, 4] | Tmax [1, 4] | half-life [1, 4] | AUC(0-t) [1, 5] | Cmax [1, 5] | Tmax [1, 5] | half-life [1, 5] | AUC(0-t) [1, 6] | Cmax [1, 6] | Tmax [1, 6] | half-life [1, 6] | also measured |
| --- | --- | --- | --- | --- | --- | --- | --- | --- | --- | --- | --- | --- | --- | --- | --- | --- | --- | --- | --- | --- | --- |
| O=C1C[C@@H](c2ccc(O[C@@H]3O[C@H](CO)[C@@H](O)[C@H](O)[C@H]3O)cc2)Oc2cc(O)ccc21 [Compound 1, liquiritin] | 0.229 ± 0.119 µg·h/mL | 0.147 ± 0.0377 µg/mL | 0.67 h | 0.99 ± 0.34 h | 2.51 ± 0.814 µg·h/mL | 0.254 ± 0.122 µg/mL | 0.17 h | 1.34 ± 1.48 h | 0.987 ± 0.567 µg·h/mL | 0.494 ± 0.165 µg/mL | 0.31 ± 0.07 h | 3.66 ± 3.3 h | 1.76 ± 0.287 µg·h/mL | 1.59 ± 0.595 µg/mL | 0.19 ± 0.11 h | 9.23 ± 5.85 h |  |  |  |  |  |
| C[C@@H]1O[C@@H](O[C@H]2[C@H](Oc3cc(O)c4c(c3)O[C@H](c3ccc(O)cc3)CC4=O)O[C@H](CO)[C@@H](O)[C@@H]2O)[C@H](O)[C@H](O)[C@H]1O [Compound 2, naringin] |  |  |  |  |  |  |  |  | 1.06 ± 0.244 µg·h/mL | 0.463 ± 0.194 µg/mL | 0.5 ± 0.18 h | 2.59 ± 2.02 h | 0.912 ± 0.198 µg·h/mL | 0.612 ± 0.2 µg/mL | 0.17 ± 0.09 h | 11.3 ± 4.86 h | 0.565 ± 0.352 µg·h/mL | 0.424 ± 0.188 µg/mL | 0.15 ± 0.1 h | 1.23 ± 0.15 h | AUC(0-t) [1, 7]: 0.561 ± 0.278 µg·h/mL; Cmax [1, 7]: 0.271 ± 0.0754 µg/mL; Tmax [1, 7]: 0.19 ± 0.07 h; half-life [1, 7]: 1.12 ± 0.28 h |
| O=C1C[C@@H](c2ccc(O)cc2)Oc2cc(O)ccc21 [Compound 6, liquiritigenin] | 1 ± 0.946 µg·h/mL | 0.22 ± 0.0474 µg/mL | 2.5 ± 1.73 h | 2.41 ± 1.57 h | 0.681 ± 0.771 µg·h/mL | 0.211 ± 0.0703 µg/mL | 1.5 ± 1.23 h | 4.12 ± 3.73 h | 2.15 ± 0.629 µg·h/mL | 0.276 ± 0.0665 µg/mL | 0.79 ± 1.58 h | 3.94 ± 0.59 h |  | 0.358 ± 0.0919 µg/mL | 2.75 ± 4.07 h | 4.05 ± 0.77 h |  |  |  |  |  |
| CC1(C)[C@@H](O[C@H]2O[C@H](C(=O)O)[C@@H](O)[C@H](O)[C@H]2O[C@@H]2O[C@H](C(=O)O)[C@@H](O)[C@H](O)[C@H]2O)CC[C@]2(C)[C@H]3C(=O)C=C4[C@@H]5C[C@@](C)(C(=O)O)CC[C@]5(C)CC[C@@]4(C)[C@]3(C)CC[C@@H]12 [Compound 7, glycyrrhizic acid] | 1.76 ± 1.43 µg·h/mL | 0.607 ± 0.137 µg/mL | 1.25 ± 0.5 h | 4.47 ± 2.63 h | 3.6 ± 1.84 µg·h/mL | 1.35 ± 0.322 µg/mL | 0.56 ± 0.4 h | 9.94 ± 8.89 h | 0.587 ± 0.261 µg·h/mL | 0.587 ± 0.261 µg/mL | 0.67 ± 0.42 h | 1.84 ± 1.82 h | 1.69 ± 0.639 µg·h/mL | 1.37 ± 0.712 µg/mL | 0.292 ± 0.1 h | 1.58 ± 1.01 h |  |  |  |  |  |
| COc1c2ccoc2cc2oc(=O)ccc12 [Compound 8, bergapten] |  |  |  |  |  |  |  |  | 0.649 ± 0.132 µg·h/mL | 0.192 ± 0.0545 µg/mL | 0.81 ± 0.34 h | 1.92 ± 1.75 h | 0.819 ± 0.0257 µg·h/mL | 0.227 ± 0.0578 µg/mL | 0.33 ± 0.21 h | 1.56 ± 1.02 h | 0.786 ± 0.369 µg·h/mL | 0.125 ± 0.0356 µg/mL | 0.11 ± 0.04 h | 9.6 ± 10.6 h | AUC(0-t) [1, 7]: 0.47 ± 0.13 µg·h/mL; Cmax [1, 7]: 0.183 ± 0.047 µg/mL; Tmax [1, 7]: 0.61 ± 0.14 h; half-life [1, 7]: 1.17 ± 0.1 h |
| COc1ccc(-c2cc(=O)c3c(OC)c(OC)c(OC)c(OC)c3o2)cc1OC [Compound 9, nobiletin] |  |  |  |  |  |  |  |  | 2.29 ± 0.0555 µg·h/mL | 0.322 ± 0.0882 µg/mL | 0.19 ± 0.07 h | 16.2 ± 7.06 h | 2.87 ± 0.285 µg·h/mL | 1 ± 0.178 µg/mL | 0.67 h | 6.03 ± 1.95 h | 1.18 ± 0.539 µg·h/mL | 0.311 ± 0.126 µg/mL | 0.46 ± 0.37 h | 3.26 ± 3.53 h | AUC(0-t) [1, 7]: 2.01 ± 1.02 µg·h/mL; Cmax [1, 7]: 0.501 ± 0.183 µg/mL; Tmax [1, 7]: 0.89 ± 0.27 h; half-life [1, 7]: 4.53 ± 1.89 h |
| COc1ccc2ccc(=O)oc2c1CC=C(C)C [Compound 10, osthole] |  |  |  |  |  |  |  |  | 0.295 ± 0.117 µg·h/mL | 0.295 ± 0.117 µg/mL | 0.61 ± 0.25 h | 1.45 ± 1.11 h | 0.748 ± 0.225 µg·h/mL | 0.458 ± 0.184 µg/mL | 0.61 ± 0.14 h | 1.25 ± 0.03 h | 0.0985 ± 0.041 µg·h/mL | 0.0692 ± 0.0256 µg/mL | 0.53 ± 0.31 h | 0.68 ± 0.49 h | AUC(0-t) [1, 7]: 0.205 ± 0.0947 µg·h/mL; Cmax [1, 7]: 0.101 ± 0.0319 µg/mL; Tmax [1, 7]: 0.39 ± 0.14 h; half-life [1, 7]: 1.54 ± 0.51 h |
| CC1(C)[C@@H](O)CC[C@]2(C)[C@H]3C(=O)C=C4[C@@H]5C[C@@](C)(C(=O)O)CC[C@]5(C)CC[C@@]4(C)[C@]3(C)CC[C@@H]12 [Compound 11, glycyrrhetinic acid] | 10.5 µg·h/mL | 0.776 ± 0.184 µg/mL | 10 ± 2.31 h | 4.66 ± 5.33 h | 22.8 µg·h/mL | 1.25 ± 0.21 µg/mL | 12.7 ± 5.89 h | 1.93 ± 0.04 h | 12.7 µg·h/mL | 0.756 ± 0.0581 µg/mL | 12 h | 1.99 ± 0.03 h | 9.99 ± 1.66 µg·h/mL | 0.504 ± 0.101 µg/mL | 9.33 ± 2.07 h | 3.01 ± 2.35 h |  |  |  |  | inhibitory potencies on CYP2C19 enzyme activity (CYP2C19): up to 50%; inhibitory potencies on CYP2C9 enzyme activity (CYP2C9): up to 50%; inhibitory potencies on CYP3A4 enzyme activity (CYP3A4): up to 50% |

— paper PMC6155732, “Development of a UPLC-TQ/MS Approach for the Determination of Eleven Bioactive Components in Haizao Yuhu Decoction Plus-Minus Haizao and Gancao Drug Combination after Oral Administration in a Rat Model of Hypothyroidism” (Molecules : A Journal of Synthetic Chemistry and Natural …, 2016)
